Reference: PubChem BioAssay AID1963851 (Molecular Pharmacology Branch, DTP, NCI, 2024)
Values joined by “and” are separate entries in the source; they are usually repeats but may differ in a detail not shown here. Equal entries are not always repeated.

Tested on: 188146-221-R-J1-PDC complex spheroid viability
Assay: Anticancer human tumor 188146-221-R-J1-PDC patient-derived colon adenocarcinoma cell line growth inhibition [POLQ]
Conditions: for viability, T/C: stronger effect = lower value
Procedure: Multicellular complex tumor spheroid response to Polymerase (POL) inhibitors (novobiocin, ART-558, RP6685) in combination with a variety of drugs and investigational agents in selected tumor cell lines
The POL inhibitors (novobiocin, ART-558, and RP6685) were evaluated both individually and in combination with standard of care and investigational anticancer small molecules within a complex spheroid model of solid tumors. . Complex spheroids include a stromal component modeled by human endothelial cells (HUVEC) and fibroblasts modeled by human mesenchymal stem cells (MSCs). The concentration ranges selected for each drug and investigational agent were based upon clinically achievable concentrations if the clinical Cmax of the agent was known.
Compounds. The drugs and investigational agents: novobiocin (NSC847541), ART-558 (NSC835418), RP-6685 (NSC848927), peposertib (NSC802822), ceralasertib (NSC780249), elimusertib (NSC800525), camonsertib (NSC841442), AZD-1390 (NSC803789), olaparib (NSC753686), talazoparib (NSC767125), rucaparib (NSC756644), sotorasib (NSC818433), MRTX-1133 (NSC836407), SN-38 (NSC673596), topotecan (NSC609699), epotoside (NSC141540), doxorubicin (NSC123127), gemcitabine (NSC613327), 5-fluorouracil (NSC19893), paclitaxel (NSC125973), vemurafenib (NSC761431), MSA-2 (NSC828583), SN-011 (NSC837082), adavosertib (NSC754352), prexasertib (NSC758257), carboplatin (NSC241240) and oxaliplatin (NSC266046), were obtained from the National Cancer Institute (NCI) Developmental Therapeutics Program Chemical Repository (21). The FDA-approved anticancer drug set is available from the Developmental Therapeutics Program at https://dtp.cancer.gov/organization/dscb/obtaining/. […] The stock solutions were prepared in dimethyl sulfoxide (DMSO, Sigma-Aldrich, St. Louis, MO, cat. D2650), except for the platinum compounds which were prepared in saline (Quality Biological, Gaithersburg, MD, cat. 114-055-101), at 800-fold the tested concentration and stored at -70 degrees C prior to their use. All drugs and investigational agents were tested over a range starting from a high concentration at or near the clinical Cmax and decreasing in half-log increments. If the clinical Cmax for an agent had not been determined, the highest concentration tested was 10 microM, except for SN-38, which was tested at a high concentration of 1 microM.
Cell Culture. All cells were maintained in an incubator at 37 degrees C and 5% CO2 with 95% humidity. The PDC lines were cultured according to standard operating procedures established by the NCI PDMR (https://pdmr.cancer.gov). Table 3 of the manuscript, lists the cell lines along with the number of the three cell types plated to form the mct-spheroids and media for tumor cell growth. After thawing, all PDC lines, except 997537-175-T-J1-PDC and 415267-285-R-J2-PDC, were cultured in Matrigel-coated flasks prepared with a working solution of 1X Ham's F-12 nutrient mix, without supplementation (Thermo Fisher Scientific, cat. 11765054), 100 U/mL penicillin-streptomycin (Thermo Fisher Scientific, cat. 15140122), and 2.5% Matrigel (Corning Inc., Corning, NY, cat. 354248) for the first three passages. The two PDC lines 997537-175-T-J1-PDC and 415267-285-R-J2-PDC were cultured on uncoated flasks. The 857933-349-R-J2-PDC line was cultured in 6C/Colon 1B media containing advanced DMEM/F-12 (Thermo Fisher Scientific, cat. 12634028), 10 mM HEPES (Thermo Fisher Scientific, cat. 15630080), 1X GlutaMAX supplement (Thermo Fisher Scientific, cat. 35050061), 0.1 mg/mL primocin (InvivoGen, San Diego, CA, cat. ant-pm-2), 10% defined fetal bovine serum, heat inactivated (HyClone Laboratories Inc., Logan, UT, cat. SH30070.03HI), 50% L-WRN conditioned media (ATCC, cat. CRL-3276), 1.25 mM N-Acetyl-L-cysteine (Sigma-Aldrich, cat. A9165), 10 mM nicotinamide (Sigma-Aldrich, cat. N0636), 1X B-27 supplement (Thermo Fisher Scientific, cat. 17504044), 1X N-2 supplement (Thermo Fisher Scientific, cat. […]
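Further: spheroids exposed to compounds for seven days.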
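Wherever viability, T/C is given: 100% = DMSO vehicle control viability.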

## O=C(c1cc(Cc2n[nH]c(=O)c3ccccc23)ccc1F)N1CCN(C(=O)C2CC2)CC1 + Cc1cccc(N(C)C(=O)C2C(O)CCN2c2nc(C)cc(C(F)(F)F)c2C#N)c1
Curve of first compound, second compound 0.0316 µM
  IC50: > 10 µM
Curve of first compound, second compound 0.1 µM
  IC50: > 10 µM
Curve of first compound, second compound 0.316 µM
  IC50: > 10 µM
Curve of first compound, second compound 1 µM
  IC50: > 10 µM
Curve of first compound, second compound 3.16 µM
  IC50: > 10 µM
Curve of first compound, second compound 10 µM
  IC50: > 10 µM
Second compound 0.0316 µM, first compound 0.0316 µM
  viability, T/C: 109%
Second compound 0.0316 µM, first compound 0.1 µM
  viability, T/C: 105%
Second compound 0.0316 µM, first compound 0.316 µM
  viability, T/C: 108%
Second compound 0.0316 µM, first compound 1 µM
  viability, T/C: 92.8%
Second compound 0.0316 µM, first compound 3.16 µM
  viability, T/C: 93.9%
Second compound 0.0316 µM, first compound 10 µM
  viability, T/C: 73.9%
Second compound 0.1 µM, first compound 0.0316 µM
  viability, T/C: 108%
Second compound 0.1 µM, first compound 0.1 µM
  viability, T/C: 103%
Second compound 0.1 µM, first compound 0.316 µM
  viability, T/C: 101%
Second compound 0.1 µM, first compound 1 µM
  viability, T/C: 101%
Second compound 0.1 µM, first compound 3.16 µM
  viability, T/C: 89.5%
Second compound 0.1 µM, first compound 10 µM
  viability, T/C: 88.8%
Second compound 0.316 µM, first compound 0.0316 µM
  viability, T/C: 105%
Second compound 0.316 µM, first compound 0.1 µM
  viability, T/C: 102%
Second compound 0.316 µM, first compound 0.316 µM
  viability, T/C: 95.6%
Second compound 0.316 µM, first compound 1 µM
  viability, T/C: 101%
Second compound 0.316 µM, first compound 3.16 µM
  viability, T/C: 90.2%
Second compound 0.316 µM, first compound 10 µM
  viability, T/C: 77.8%
Second compound 1 µM, first compound 0.0316 µM
  viability, T/C: 109%
Second compound 1 µM, first compound 0.1 µM
  viability, T/C: 106%
Second compound 1 µM, first compound 0.316 µM
  viability, T/C: 96.7%
Second compound 1 µM, first compound 1 µM
  viability, T/C: 103%
Second compound 1 µM, first compound 3.16 µM
  viability, T/C: 87.7%
Second compound 1 µM, first compound 10 µM
  viability, T/C: 78.4%
Second compound 3.16 µM, first compound 0.0316 µM
  viability, T/C: 89.5%
Second compound 3.16 µM, first compound 0.1 µM
  viability, T/C: 102%
Second compound 3.16 µM, first compound 0.316 µM
  viability, T/C: 106%
Second compound 3.16 µM, first compound 1 µM
  viability, T/C: 86.7%
Second compound 3.16 µM, first compound 3.16 µM
  viability, T/C: 93.1%
Second compound 3.16 µM, first compound 10 µM
  viability, T/C: 76.9%
Second compound 10 µM, first compound 0.0316 µM
  viability, T/C: 99.8%
Second compound 10 µM, first compound 0.1 µM
  viability, T/C: 90.1%
Second compound 10 µM, first compound 0.316 µM
  viability, T/C: 96.3%
Second compound 10 µM, first compound 1 µM
  viability, T/C: 98.2%
Second compound 10 µM, first compound 3.16 µM
  viability, T/C: 95.6%
Second compound 10 µM, first compound 10 µM
  viability, T/C: 82.1%

## CCc1cc2c(N3CCc4c(cc(Cn5ccnc5)cc4-c4cn(C)nc4C(F)(F)F)C3=O)ccnc2c(OC)n1
Compound 0.0316 µM
  viability, T/C: 103% and 102% and 97.4%
Compound 0.1 µM
  viability, T/C: 100% and 84.5% and 101%
Compound 0.316 µM
  viability, T/C: 100% and 99.4% and 92.2%
Compound 1 µM
  viability, T/C: 92.7% and 93.4% and 98.2%
Compound 3.16 µM
  viability, T/C: 69.5% and 74% and 71.6%
Compound 10 µM
  viability, T/C: 48.1% and 54.2% and 57.5%
Curve of compound
  IC50: 9.01 µM and > 10 µM
